The record followed here is patent US10793892B2, “Method for detecting the presence of expanded spectrum β-lactamase-producing bacteria in a sample” (INSERM (INSTITUT NATIONAL DE LA SANTE ET DE LA RECHERCHE …, priority 2011, dated 2020).

One test has as its system Enterobacteriaceae. Type of test: biochemical. The conditions noted are these: all CTX-M producers (n=147); tazobactam added to cefotaxime well.
The test system of another test is E. sakazakii. The test can be described thus: Susceptibility testing, MIC by Etest. Type of test: cell-based. The conditions noted are these: overexpressed chromosome-encoded cephalosporinase, n=1. As to the method:
(§1) Susceptibility testing was performed by determining MIC values using the Etest® (AB bioMérieux; Solna, Sweden) on Mueller-Hinton agar plates at 37° C. and results were recorded according to US guidelines (CLSI), as updated in 2012 (2). The breakpoints for cefotaxime are susceptible (S)≤1 and resistant (R)≥4 μg/ml, and for ceftazidime S≤4 and R≥16 μg/ml.

In a further test the test system is S. ficaria. The test can be described thus: Susceptibility testing, MIC by Etest. Type of test: cell-based. The conditions noted are these: S. ficaria Wild-type, chromosome-encoded cephalosporinase, n=1. As to the method:
as §1

Another test deals with C. brakii. Description: Susceptibility testing, MIC by Etest. Type of test: cell-based. The note with it: C. brakii Wild-type, chromosome-encoded cephalosporinase, n=1. As to the method: as §1
The subject of test [1] is C. freundii. Description: ESBL NDP test using spiked blood cultures. The class given is biochemical, Citrobacter freundii. Details: key: (+) and (−) referred to color change being, red to yellow or unchanged, respectively; (+) and (−) referred to color change being, red to yellow or unchanged, respectively. The conditions noted are these: C. freundii BG 1106 7767, Wild-type. As to the method:
Strains were isolated on Mueller-Hinton agar (Biorad, Marnes-la-Coquette, France) and incubated at 37° C. for 16 h to 24 h before performing the NDP rapid ESBL test as follows. One calibrated inoculated loop (10 μl) of the tested strain was resuspended in 150 μl of 20 mM Tris-HCl lysis buffer previously distributed in Microbead tubes (Ultraclean Microbial DNA isolation kit Bead Tubes, MO BIO Laboratories, Carlsbad, USA). Mechanical lysis of bacteria was performed by strong agitation of Microbead tubes using a vortex adapter (MO BIO Laboratories) for 30 min at room temperature. This bacterial suspension was centrifuged at 10,000×g at room temperature for 5 min. Thirty μl of the supernatant was mixed in a well of a 96-well tray with 100 μl of a 1 ml solution made of 3 mg of purified cefotaxime sodium salt (Sigma-Aldrich, Saint-Quentin-Fallavier, France) in a pH 7.8 phenol red solution. […]. […] Similarly, culture extracts were analyzed in wells containing cefotaxime and tazobactam (4 mg/ml). […]
Rapid detection of ESBL producers was attempted from spiked blood cultures which positivity was assessed using the BactAlert blood culture system (bioMérieux). […] Spiked blood cultures were made of 1×10^3 CFU of each strain and incubated 24 to 48 h before a positivity of the blood culture was detected by the BactAlert system. […]

In test [2] the test system is C. freundii. Description: ESBL NDP test using cultured strains. Type of test: biochemical, Citrobacter freundii. Details: key: (+) and (−) referred to color change being, red to yellow or unchanged, respectively; (+) and (−) referred to color change being, red to yellow or unchanged, respectively. As to the method:
Strains were isolated on Mueller-Hinton agar (Biorad, Marnes-la-Coquette, France) and incubated at 37° C. for 16 h to 24 h before performing the NDP rapid ESBL test as follows. One calibrated inoculated loop (10 μl) of the tested strain was resuspended in 150 μl of 20 mM Tris-HCl lysis buffer previously distributed in Microbead tubes (Ultraclean Microbial DNA isolation kit Bead Tubes, MO BIO Laboratories, Carlsbad, USA). Mechanical lysis of bacteria was performed by strong agitation of Microbead tubes using a vortex adapter (MO BIO Laboratories) for 30 min at room temperature. This bacterial suspension was centrifuged at 10,000×g at room temperature for 5 min. Thirty μl of the supernatant was mixed in a well of a 96-well tray with 100 μl of a 1 ml solution made of 3 mg of purified cefotaxime sodium salt (Sigma-Aldrich, Saint-Quentin-Fallavier, France) in a pH 7.8 phenol red solution. […]. The phenol red solution was made by taking 2 ml of a concentrated pH 8 phenol solution (made from a mixture of phenol red 0.5% in distilled water) to which 16.6 ml of distilled water was added. The pH value was then adjusted to a 7.8 value by adding drops of a 1 N NaOH solution. Mixture of the phenol red solution and the enzymatic suspension being tested was incubated at 37° C. for 30 min. Similarly, culture extracts were analyzed in wells containing cefotaxime and tazobactam (4 mg/ml). Other concentrations of tazobactam and other ß-lactamase inhibitors were tested giving less clear results (data not shown). […] This definition of test positivity will be applied throughout the study.

Structures are written as SMILES.

Procedure for Enterobacteriaceae: Strains were isolated on Mueller-Hinton agar (Biorad, Marnes-la-Coquette, France) and incubated at 37° C. for 16 h to 24 h before performing the NDP rapid ESBL test as follows. One calibrated inoculated loop (10 μl) of the tested strain was resuspended in 150 μl of 20 mM Tris-HCl lysis buffer previously distributed in Microbead tubes (Ultraclean Microbial DNA isolation kit Bead Tubes, MO BIO Laboratories, Carlsbad, USA). Mechanical lysis of bacteria was performed by strong agitation of Microbead tubes using a vortex adapter (MO BIO Laboratories) for 30 min at room temperature. This bacterial suspension was centrifuged at 10,000×g at room temperature for 5 min. Thirty μl of the supernatant was mixed in a well of a 96-well tray with 100 μl of a 1 ml solution made of 3 mg of purified cefotaxime sodium salt (Sigma-Aldrich, Saint-Quentin-Fallavier, France) in a pH 7.8 phenol red solution. […] The phenol red solution was made by taking 2 ml of a concentrated pH 8 phenol solution (made from a mixture of phenol red 0.5% in distilled water) to which 16.6 ml of distilled water was added. The pH value was then adjusted to a 7.8 value by adding drops of a 1 N NaOH solution. Mixture of the phenol red solution and the enzymatic suspension being tested was incubated at 37° C. for 30 min. Similarly, culture extracts were analyzed in wells containing cefotaxime and tazobactam (4 mg/ml). […]

With `CO/N=C(\C(=O)N[C@@H]1C(=O)N2C(C(=O)O)=C(COC(C)=O)CS[C@H]12)c1csc(N)n1` [CTX, cefotaxime], the “color of the wells” value in the test on Enterobacteriaceae is “turned from red to yellow”. The MICs range with E. sakazakii is more than 16 µg/mL; in the test on S. ficaria, 0.12 µg/mL; with C. brakii, 0.12 µg/mL. Further, the “ESBL NDP Test from: Blood culture” value with C. freundii [1] is recorded as “−”. Besides, the “ESBL NDP Test from: Colonies” value in the test with C. freundii [2] (C. freundii BG 1106 7767, Wild-type) is “−”. The “Test (color change)” value in the test with C. freundii [2] (C. freundii CTX-M-15, n=3) is on record as “+”; with C. freundii [2] (C. freundii TEM-3, n=1), “+”; in the test with C. freundii [2] (C. freundii Wild-type, chromosome-encoded cephalosporinase, n=1), “−”.
